Patent US20010044382A1, “Herbicide” (priority 1998, published 2001)

Experiments:
Type in all cases: in vivo
[1] = tested on: Xanthium; test: Pre-emergence test (greenhouse), herbicidal action
Description: (§1) Experiment Description—Pre-emergence Test:
(§2) The test plants are sown in standard soil in plastics pots under greenhouse conditions. Directly after sowing, the test compounds are applied in aqueous suspension (500 liters of water/ha). The test plants are then grown on in the greenhouse under optimum conditions. The rates of application depend on the optimum doses ascertained under field conditions and greenhouse conditions. The tests are evaluated after 26 days (% action, 100%=plants have died, 0%=no phytotoxic action).

[2] = tested on: Polygonum; test: Pre-emergence test (greenhouse), herbicidal action
Description: as §1, §2

[3] = tested on: Ipomoea; test: Pre-emergence test (greenhouse), herbicidal action
Description: as §1, §2

[4] = tested on: Digitaria; test: Post-emergence test (greenhouse), herbicidal action; conditions: halosulfuron 100 g/ha, after 20 days
Description: (§3) Experiment Description—Post-emergence Test:
(§4) The test plants are grown to the 2- to 3-leaf stage in plastics pots under greenhouse conditions. A standard soil is used as cultivation substrate. At the 2- to 3-leaf stage, the herbicide is applied to the test plants on its own and as a mixture. The application is carried out using an aqueous suspension of the test compounds in 500 liters of water/ha. The rates of application depend on the optimum doses ascertained under field conditions and greenhouse conditions. The tests are evaluated after 20 days (% action, 100%=plant has died, 0%=no phytotoxic action).

[5] = tested on: Cyperus; test: as above; conditions: primisulfuron 20 g/ha, after 20 days
Description: as §3, §4

[6] = terbuthylazine 200 g/ha, after 26 days (Table 4)
[7] = terbuthylazine 200 g/ha, after 26 days (Table 6)
[8] = atrazine 200 g/ha, after 26 days (Table 5)
[9] = atrazine 200 g/ha, after 26 days (Table 7)

## CCNc1nc(Cl)nc(NC(C)(C)C)n1 [Terbuthylazine, terbuthylazine]
[1]; [6]
  % action: 0%
[1]; [7]
  % action: 0%
[2]; [6]
  % action: 60%
[2]; [7]
  % action: 60%
[3]; [6]
  % action: 30%
[3]; [7]
  % action: 30%

## COc1cc(OC)nc(NC(=O)NS(=O)(=O)c2c(C(=O)O)c(Cl)nn2C)n1 [Halosulfuron, halosulfuron]
[4]
  % action: 25%

## O=C(Nc1nc(OC(F)F)cc(OC(F)F)n1)NS(=O)(=O)c1ccccc1C(=O)O [Primisulfuron, primisulfuron]
[5]
  % action: 90%

## CCNc1nc(Cl)nc(NC(C)C)n1 [Atrazine, atrazine]
[1]; [8]
  % action: 0%
[1]; [9]
  % action: 0%
[2]; [8]
  % action: 90%
[3]; [9]
  % action: 70%
